Reference: ChEMBL document CHEMBL3885881, “DrugMatrix”
Several values for one entry are separate records, joined by “and”; a condition that tells them apart may be missing. Equal entries are not always repeated.

Organism: Rattus norvegicus
Test: DrugMatrix - Regimen: Daily Repeat
Format: toxicity, organism-based, Sprague-Dawley
Set-up: regimen Daily Repeat, gender Male, age 6-8 weeks
Conditions: in vivo, ip, route intraperitoneal, vehicle 100 % SALINE; for ABSOLUTE BASOPHIL / ABSOLUTE EOSINOPHIL / ABSOLUTE LYMPHOCYTE / ABSOLUTE MONOCYTE / ABSOLUTE SEGMENTED NEUTROPHIL / BASOPHIL / EOSINOPHIL / ERYTHROCYTE COUNT / HEMATOCRIT / HEMOGLOBIN / LEUKOCYTE COUNT / LYMPHOCYTE / MEAN CORPUSCULAR HEMOGLOBIN / MEAN CORPUSCULAR HEMOGLOBIN CONCENTRATION / MEAN CORPUSCULAR VOLUME / MONOCYTE / NEUTROPHIL / PLATELET COUNT: tissue Blood; for ALANINE AMINOTRANSFERASE / ALBUMIN / ALKALINE PHOSPHATASE / ASPARTATE AMINOTRANSFERASE / BLOOD UREA NITROGEN / CARBON DIOXIDE / CHOLESTEROL / CREATINE PHOSPHOKINASE / CREATININE / GLUCOSE / LACTATE DEHYDROGENASE / LIPASE / PHOSPHORUS / POTASSIUM / SODIUM / TOTAL BILIRUBIN / TOTAL PROTEIN / URIC ACID / CHLORIDE: tissue Plasma
[1] = 0 mg/kg, 120 h, dose level Control, time 5 day
[2] = 0 mg/kg, […], dose level Control, time 14 day
[3] = 0 mg/kg, […], dose level Control, time 28 day
[4] = 40 mg/kg, 120 h, dose level High, time 5 day

GENTAMICIN
ABSOLUTE BASOPHIL [1]: 32 cells/µL
ABSOLUTE EOSINOPHIL [1]: 110 cells/µL
ABSOLUTE LYMPHOCYTE [1]: 6630 cells/µL
ABSOLUTE MONOCYTE [1]: 140 cells/µL
ABSOLUTE SEGMENTED NEUTROPHIL [1]: 1170 cells/µL
BASOPHIL [1]: 0.38% and 0.35%
EOSINOPHIL [1]: 1.28% and 0.62%
ERYTHROCYTE COUNT [1]: 7.45 x10E6/uL and 7.26 x10E6/uL
HEMATOCRIT [1]: 45.74% and 47.97%
HEMOGLOBIN [1]: 14.72 G/DL and 15.38 G/DL
LEUKOCYTE COUNT [1]: 8.11 x10E3/uL and 8.68 x10E3/uL
LYMPHOCYTE [1]: 81.3% and 86.77%
MEAN CORPUSCULAR HEMOGLOBIN [1]: 19.76 pg and 21.18 pg
MEAN CORPUSCULAR HEMOGLOBIN CONCENTRATION [1]: 32.16 G/DL and 32.05 G/DL
MEAN CORPUSCULAR VOLUME [1]: 61.38 fL and 66.15 fL
MONOCYTE [1]: 1.76% and 1.57%
NEUTROPHIL [1]: 14.9% and 9.53%
PLATELET COUNT [1]: 1322.4 x10E3/uL and 1786 x10E3/uL
ALANINE AMINOTRANSFERASE [1]: 25.8 u/L and 20.5 u/L
ALBUMIN [1]: 3.64 G/DL and 4.35 G/DL
ALKALINE PHOSPHATASE [1]: 300 u/L
ASPARTATE AMINOTRANSFERASE [1]: 81.4 u/L and 86.75 u/L
BLOOD UREA NITROGEN [1]: 14.4 mg/dL and 17 mg/dL
CARBON DIOXIDE [1]: 29 mmol/L
CHOLESTEROL [1]: 69.2 mg/dL and 51.25 mg/dL
CREATINE PHOSPHOKINASE [1]: 303.2 u/L and 384.75 u/L
CREATININE [1]: 0.56 mg/dL and 0.47 mg/dL
GLUCOSE [1]: 125.4 mg/dL and 128.75 mg/dL
LACTATE DEHYDROGENASE [1]: 105.4 u/L and 145 u/L
LIPASE [1]: 22.4 u/L and 13.25 u/L
PHOSPHORUS [1]: 11.8 mg/dL
POTASSIUM [1]: 5.52 MEQ/L and 6.58 MEQ/L
SODIUM [1]: 147 MEQ/L and 151 MEQ/L
TOTAL BILIRUBIN [1]: 0.2 mg/dL and 0.33 mg/dL
TOTAL PROTEIN [1]: 6.1 G/DL and 6.53 G/DL
URIC ACID [1]: 1.06 mg/dL and 1.95 mg/dL
ABSOLUTE BASOPHIL [2]: 130 cells/µL
ABSOLUTE EOSINOPHIL [2]: 140 cells/µL
ABSOLUTE LYMPHOCYTE [2]: 13500 cells/µL
ABSOLUTE MONOCYTE [2]: 400 cells/µL
ABSOLUTE SEGMENTED NEUTROPHIL [2]: 2330 cells/µL
HEMATOCRIT [2]: 45.98%
HEMOGLOBIN [2]: 15.17 G/DL
MEAN CORPUSCULAR VOLUME [2]: 59.4 fL
NEUTROPHIL [2]: 14.14%
ABSOLUTE BASOPHIL [3]: 91 cells/µL
ABSOLUTE EOSINOPHIL [3]: 110 cells/µL
ABSOLUTE LYMPHOCYTE [3]: 9910 cells/µL
ABSOLUTE MONOCYTE [3]: 210 cells/µL
ABSOLUTE SEGMENTED NEUTROPHIL [3]: 1560 cells/µL
BASOPHIL [3]: 0.77%
EOSINOPHIL [3]: 0.92%
ERYTHROCYTE COUNT [3]: 8.21 x10E6/uL
HEMATOCRIT [3]: 47.53%
HEMOGLOBIN [3]: 15.65 G/DL
LEUKOCYTE COUNT [3]: 11.91 x10E3/uL
LYMPHOCYTE [3]: 83.34%
MEAN CORPUSCULAR HEMOGLOBIN [3]: 19.07 pg
MEAN CORPUSCULAR HEMOGLOBIN CONCENTRATION [3]: 32.93 G/DL
MEAN CORPUSCULAR VOLUME [3]: 57.9 fL
MONOCYTE [3]: 1.68%
NEUTROPHIL [3]: 12.97%
PLATELET COUNT [3]: 1323.8 x10E3/uL
ALBUMIN [2]: 3.66 G/DL
CARBON DIOXIDE [2]: 25 mmol/L
CHLORIDE [2]: 107 MEQ/L
CREATINE PHOSPHOKINASE [2]: 410.25 u/L
SODIUM [2]: 149.2 MEQ/L
URIC ACID [2]: 0.94 mg/dL
ALANINE AMINOTRANSFERASE [3]: 30 u/L
ALBUMIN [3]: 3.71 G/DL
ALKALINE PHOSPHATASE [3]: 186.8 u/L
ASPARTATE AMINOTRANSFERASE [3]: 78.2 u/L
BLOOD UREA NITROGEN [3]: 14.2 mg/dL
CHOLESTEROL [3]: 44.9 mg/dL
CREATINE PHOSPHOKINASE [3]: 334.3 u/L
CREATININE [3]: 0.6 mg/dL
GLUCOSE [3]: 147.2 mg/dL
LACTATE DEHYDROGENASE [3]: 123.1 u/L
LIPASE [3]: 9.6 u/L
PHOSPHORUS [3]: 10.01 mg/dL
POTASSIUM [3]: 6.57 MEQ/L
SODIUM [3]: 149.5 MEQ/L
TOTAL BILIRUBIN [3]: 0.21 mg/dL
TOTAL PROTEIN [3]: 6.66 G/DL
URIC ACID [3]: 1.26 mg/dL
ABSOLUTE BASOPHIL [4]: 80 cells/µL
ABSOLUTE EOSINOPHIL [4]: 74 cells/µL
ABSOLUTE LYMPHOCYTE [4]: 8100 cells/µL
ABSOLUTE MONOCYTE [4]: 240 cells/µL
ABSOLUTE SEGMENTED NEUTROPHIL [4]: 1450 cells/µL
BASOPHIL [4]: 0.76% and 0.38%
EOSINOPHIL [4]: 0.78% and 0.9%
ERYTHROCYTE COUNT [4]: 6.83 x10E6/uL and 7.91 x10E6/uL
HEMATOCRIT [4]: 41.68% and 49.95%
HEMOGLOBIN [4]: 15.98 G/DL
LEUKOCYTE COUNT [4]: 10.02 x10E3/uL and 8.78 x10E3/uL
LYMPHOCYTE [4]: 80.04% and 84.55%
MEAN CORPUSCULAR HEMOGLOBIN [4]: 20.3 pg and 20.2 pg
MEAN CORPUSCULAR HEMOGLOBIN CONCENTRATION [4]: 33.3 G/DL and 31.98 G/DL
MEAN CORPUSCULAR VOLUME [4]: 61 fL
MONOCYTE [4]: 2.58% and 2.52%
NEUTROPHIL [4]: 15.12% and 10.23%
PLATELET COUNT [4]: 1275.4 x10E3/uL and 1549.75 x10E3/uL
ALANINE AMINOTRANSFERASE [4]: 28.6 u/L and 25 u/L
ALBUMIN [4]: 3.36 G/DL and 4.35 G/DL
ALKALINE PHOSPHATASE [4]: 214.2 u/L and 307.5 u/L
ASPARTATE AMINOTRANSFERASE [4]: 87.2 u/L and 90.25 u/L
BLOOD UREA NITROGEN [4]: 15 mg/dL and 15.25 mg/dL
CARBON DIOXIDE [4]: 25.75 mmol/L
CHLORIDE [4]: 107.4 MEQ/L
CHOLESTEROL [4]: 60.8 mg/dL and 65.25 mg/dL
CREATINE PHOSPHOKINASE [4]: 313.5 u/L and 416.75 u/L
CREATININE [4]: 0.44 mg/dL and 0.45 mg/dL
GLUCOSE [4]: 128 mg/dL and 118.5 mg/dL
LACTATE DEHYDROGENASE [4]: 133.8 u/L and 153 u/L
